How the values were obtained:
Type in all cases: cell-based
COL11A2 = experiment: DNA microarray gene expression, COL11A2
Description: (§1) In light of the efficacy of the aryl alkanones ire addressing many of the molecular/biomolecular processes damaged by UV exposure, a study was undertaken to assess whether these compounds would also be effective in addressing symptoms associated with non-UV induced skin aging including chronological aging as well as disease conditions that likewise adversely affect skin processes. The studies conducted involves DNA microarray, PCR array, cell culture, enzyme inhibitory activity.

Keratinocyte = experiment: UVA-induced delayed formation of CPDs (dCPDs) in keratinocytes; details: 25 μg/ml
Procedure: (§2) A second study was carried out, similar to the first, except that this time the analysis was in assessing the efficacy, if any, of the presently taught aryl alkanones in reducing UVA-induced delayed formation of CPDs (dCPDs).

Fibroblasts = experiment: UVA-induced delayed formation of CPDs (dCPDs) in fibroblasts; details: 25 μg/ml, product incubated for 24 hrs. plus UVA irradiation
Procedure: as §2

COL6A1 = experiment: PCR array gene expression, COL6A1
Description: as §1

COL4A1 = experiment: DNA microarray gene expression, COL4A1
Description: as §1

MMP3 = experiment: PCR array gene expression, MMP3
Description: as §1

ITGA2 = experiment: PCR array gene expression, ITGA2
Description: as §1

TIMP4 = experiment: DNA microarray gene expression, TIMP4
Description: as §1

Collagen type 4 = experiment: Collagen 4 boosting in human dermal fibroblasts; details: HDF, incubation time of 6 days
Procedure: In this study, an investigation was performed in relation to the ability, if any, of the aryl alkanones to boost the production of Collagens 1, 3 and 4 proteins. […] In this study, the cells used were human dermal fibroblasts (HDF), passage 12 (Cell Applications, San Diego, Calif.) which underwent an incubation time of 6 days.

TIMP2 = experiment: DNA microarray gene expression, TIMP2
Description: as §1

COc1cc(CC(C(C)=O)C(C)=O)ccc1O [Compound 1, Acetyl Zingerone]
Microarray, COL11A2 gene expression (COL11A2): +5.2 | UVA/% Reduction in dCPDs vs. control, 0 hr. (Reduction in iCPDs) (Keratinocyte; 0 hr.): ^+0 hr.: ↓14% | UVA/% Reduction in dCPDs vs. control, 1 hr. (Keratinocyte; 1 hr.): 1 hr.: ↓43% | UVA/% Reduction in dCPDs vs. control, 2 hr. (Keratinocyte; 2 hr.): 2 hr.: ~0% | UVA/% Reduction in dCPDs vs. control, 0 hr. (Reduction in iCPDs) (Fibroblasts; 0 hr.): ^+0 hr.: ↓45% | UVA/% Reduction in dCPDs vs. control, 1 hr. (Fibroblasts; 1 hr.): 1 hr.: ↓20% | UVA/% Reduction in dCPDs vs. control, 2 hr. (Fibroblasts; 2 hr.): 2 hr.: ↓18% | PCR array, COL6A1 gene expression (COL6A1): +1.5 | Microarray, COL4A1 gene expression (COL4A1): +1.6 | PCR array, MMP3 gene expression (MMP3): −2.5 | PCR array, ITGA2 gene expression (ITGA2): +1.6 | Microarray, TIMP4 gene expression (TIMP4): +1.6 | % Collagen 4 Boosting (Collagen type 4; 50 μg/ml): 145% | % Collagen 4 Boosting (Collagen type 4; 100 μg/ml): 245% | Microarray, TIMP2 gene expression (TIMP2): +1.5

Reference: patent US10568819B2, “Skin enhancing compositions and methods” (Sytheon Limited, priority 2016, dated 2020)
